For 2 molecules, Km and kcat results are on record in paper PMC4654880, “A comparison of the enzymatic properties of three recombinant isoforms of thrombolytic and antibacterial protein—Destabilase-Lysozyme from medicinal leech” (BMC Biochemistry, 2015).

Assay in all cases: isopeptidase assay, p-nitroaniline release, A405
Common to all, as to assay type: biochemical, Hirudo medicinalis
Conditions in all cases: pH 5.5, no NaCl (stated for activity), 37 °C

For one data set, the system named is T1, mlDL-Ds1.
T1 construct: gene Ds-1; ~16 kDa band printed for Ds3; monomer by gel filtration; synthetic codon-optimised gene
An excerpt: isopeptidase assay, p-nitroaniline release, A405 on mlDL-Ds1

A further data set relates to T2, mlDL-Ds3.
T2 construct: gene Ds-3; ~16 kDa; monomer by gel filtration; synthetic codon-optimised gene
From the text:
isopeptidase assay, p-nitroaniline release, A405 on mlDL-Ds3

Substrate in data set [1]: N[C@@H](CCC(=O)Nc1ccc([N+](=O)[O-])cc1)C(=O)O
From the text:
isopeptidase assay, p-nitroaniline release, A405 on mlDL-Ds2

What is called Km is the substrate concentration at which the rate is half of its maximum. For `N[C@@H](CCC(=O)Nc1ccc([N+](=O)[O-])cc1)C(=O)O` [L-γ-Glu-pNA], the figures for the Km in the data set on mlDL-Ds1 and with mlDL-Ds3 were 40 µM and 20 µM, respectively.

B1: mlDL-Ds2 (Hirudo medicinalis) (protein)
chain: QFTDSCLRCICKVEGCDSQIGKCGMDVGSLSCGPYQIKKPYWIDCGKPGGGYESCTKNKACSETCVRAYMKRYGTFCTGGRTPTCQDYARIHNGGPRGCKSSATVGYWNKVQKCLR
notes: monomer by gel filtration; synthetic codon-optimised gene
By kcat is commonly meant the number of substrate molecules converted per active site and unit of time at saturation. Turning to B1, in data set [1], the Km stood at 50 µM and the kcat worked out at 0.08 s⁻¹.
